From patent publication US12391676B2 (H. LEE MOFFITT CANCER CENTER AND RESEARCH INSTITUTE, INC., priority 2018, dated 2025)

Experiments:
BRD4 = BRD4 (Homo sapiens (Human), UniProt O60885); assay: BRD4 DSF thermal shift (ΔTm); format: binding; conditions: for BRD4 DSF (ΔTm): Table 2; for DSF ΔTm: Table 1
MM1.S cells = assay: Antiproliferative activity, MM1.S cells; format: cell-based; conditions: Homo sapiens; for GI50: Table 2, read-out: GI50 (MM1S); for IC50: Table 1 comments
Experimental: Cellular activity of promising compounds is assessed using MM.1S and MV4-11 AML cells using c-Myc levels as biomarker (6-12 hr treatment) and antiproliferative activity (48-72 hr treatment) as described (Ciceri et al., Dual kinase-bromodomain inhibitors for rationally designed polypharmacology. Nat Chem Biol 2014).

| Structure (SMILES) | BRD4 DSF (ΔTm) (BRD4) [°C] | also measured |
| --- | --- | --- |
| Cc1cnc(Nc2ccc(C3CCN(C)CC3)c(F)c2)cc1Nc1ccc2c(c1)N(S(=O)(=O)C(C)(C)C)CC2 [drawing 16] | – | DSF ΔTm (BRD4): 8.9 ± 0.2 °C |
| Cc1cnc(Nc2ccc(C3CCN(C)CC3)c(F)n2)nc1Nc1cccc(NS(=O)(=O)C(C)(C)C)c1 [PN2-117, N-(3-((2-((6-Fluoro-5-(1-methylpiperidin-4-yl)pyridin-2-yl)amino)-5-methylpyrimidin-4-yl)amino)phenyl)-2-methylpropane-2-sulfonamide] | 11.0 | GI50 (MM1.S cells): 0.153 µM |
| CN1CCC(c2ccc(Nc3ncc(N)c(Nc4ccc(Cl)c(NS(=O)(=O)C(C)(C)C)c4)n3)cc2F)CC1 [PN1-140, N-(5-((5-Amino-2-((3-fluoro-4-(1-methylpiperidin-4-yl)phenyl)amino)pyrimidin-4-yl)amino)-2-chlorophenyl)-2-methylpropane-2-sulfonamide] | 9.5 | GI50 (MM1.S cells): 1.8 µM |
| Cc1cnc(Nc2cc(F)cc(N3CCN(C)CC3)c2)nc1Nc1cccc(NS(=O)(=O)C(C)(C)C)c1 [drawing 14] | – | DSF ΔTm (BRD4): 11.1 °C; IC50 (MM1.S cells): 0.22 µM |
| Cc1cnc(Nc2ccc(OCCN3CCCC3)c(F)c2)nc1Nc1ccc(Cl)c(NS(=O)(=O)C(C)(C)C)c1 | – | DSF ΔTm (BRD4): 15.1 ± 0.1 °C |
| Cc1cnc(Nc2cc(F)c(C3CCNCC3)cn2)nc1Nc1ccc(Cl)c(NS(=O)(=O)C(C)(C)C)c1.Cl [PN2-084, N-(2-Chloro-5-((2-((4-fluoro-5-(piperidin-4-yl)pyridin-2-yl)amino)-5-methylpyrimidin-4-yl)amino)phenyl)-2-methylpropane-2-sulfonamide hydrochloride] | 14.5 | – |
| Cc1cnc(Nc2ccc(OCCN3CCCC3)c(F)c2)nc1Nc1cccc(NS(=O)(=O)C(C)(C)C)c1 | – | DSF ΔTm (BRD4): 12.6 ± 0.1 °C |
| CN1CCC(c2ccc(Nc3ncc(C(F)(F)F)c(Nc4ccc(Cl)c(NS(=O)(=O)C(C)(C)C)c4)n3)cc2F)CC1 | – | DSF ΔTm (BRD4): 10.4 ± 0.1 °C |
| Cc1cnc(Nc2ccc(C3CCN(C)CC3)c(F)n2)nc1Nc1ccc(Cl)c(NS(=O)(=O)C(C)(C)C)c1 [PN2-102, N-(2-Chloro-5-((2-((6-fluoro-5-(1-methylpiperidin-4-yl)pyridin-2-yl)amino)-5-methylpyrimidin-4-yl)amino)phenyl)-2-methylpropane-2-sulfonamide] | 13.0 | GI50 (MM1.S cells): 0.109 µM |
| Cc1cnc(Nc2ccc(C3CCN(C)CC3)c(F)c2)cc1Nc1cccc(NS(=O)(=O)C(C)(C)C)c1 [SY3-039, N-(3-((2-((3-Fluoro-4-(1-methylpiperidin-4-yl)phenyl)amino)-5-methylpyridin-4-yl)amino)phenyl)-2-methylpropane-2-sulfonamide] | 6.7 | GI50 (MM1.S cells): 1.6 µM |
| Cc1cnc(Nc2cc(F)c(C3CCN(C)CC3)c(F)c2)nc1Nc1cc(NS(=O)(=O)C(C)(C)C)ncn1 [MA11-009, N-(6-((2-((3,5-difluoro-4-(1-methylpiperidin-4-yl)phenyl)amino)-5-methylpyrimidin-4-yl)amino)pyrimidin-4-yl)-2-methylpropane-2-sulfonamide] | 1.1 | – |
| Cc1cnc(Nc2cc(F)cc(N3CCN(C)CC3)c2)nc1Nc1ccc(Cl)c(NS(=O)(=O)C(C)(C)C)c1 [drawing 10] | – | DSF ΔTm (BRD4): 11.1 °C; IC50 (MM1.S cells): 0.16 µM |
| Cc1cnc(Nc2cc(F)c(C3CCN(C)CC3)cn2)nc1Nc1cc(NS(=O)(=O)C(C)(C)C)ncn1 [MA10-178, N-(6-((2-((4-fluoro-5-(1-methylpiperidin-4-yl)pyridin-2-yl)amino)-5-methylpyrimidin-4-yl)amino)pyrimidin-4-yl)-2-methylpropane-2-sulfonamide] | 2.8 | – |
| Cc1cnc(Nc2ccc(OCCN3CCCC3)cc2)nc1Nc1ccc(Cl)c(NS(=O)(=O)C(C)(C)C)c1 | – | DSF ΔTm (BRD4): 12.9 ± 0.1 °C |
| Cc1cnc(Nc2ccc(C3CCN(C)CC3)cn2)nc1Nc1ccc(Cl)c(NS(=O)(=O)C(C)(C)C)c1 [PN2-081, N-(2-Chloro-5-((5-methyl-2-((5-(1-methylpiperidin-4-yl)pyridin-2-yl)amino)pyrimidin-4-yl)amino)phenyl)-2-methylpropane-2-sulfonamide] | 12.3 | – |
| Cc1cnc(Nc2cc(F)c(N3CCN(C)CC3)c(F)c2)cc1Nc1ccc(Cl)c(NS(=O)(=O)C(C)(C)C)c1 [MA9-037, N-(2-Chloro-5-((2-((3,5-difluoro-4-(4-methylpiperazin-1-yl)phenyl)amino)-5-methylpyridin-4-yl)amino)phenyl)-2-methylpropane-2-sulfonamide·bisformate] | – | GI50 (MM1.S cells): 2.83 µM |
| Cc1cc(Nc2ncc(C)c(Nc3ccc(Cl)c(NS(=O)(=O)C(C)(C)C)c3)n2)c(F)cc1C1CCN(C)CC1 [PN1-119, N-(2-Chloro-5-((2-((2-fluoro-5-methyl-4-(1-methylpiperidin-4-yl)phenyl)amino)-5-methylpyrimidin-4-yl)amino)phenyl)-2-methylpropane-2-sulfonamide] | – | GI50 (MM1.S cells): 0.39 µM |
| Cc1cnc(Nc2cc(F)c(C3CCN(C)CC3)cn2)nc1Nc1ccc2ccn(S(=O)(=O)C(C)(C)C)c2n1 [MA10-149, N4-(1-(tert-butylsulfonyl)-1H-pyrrolo[2,3-b]pyridin-6-yl)-N2-(4-fluoro-5-(1-methylpiperidin-4-yl)pyridin-2-yl)-5-methylpyrimidine-2,4-diamine] | 6.2 | – |
| CN1CCN(c2ccc(Nc3ncc(F)c(Nc4ccc(Cl)c(NS(=O)(=O)C(C)(C)C)c4)n3)cc2)CC1 | – | DSF ΔTm (BRD4): 9.6 ± 0.9 °C |
| Cc1cnc(Nc2ccc(N3CCN(C)CC3)c(F)c2)cc1Nc1ccc(Cl)c(NS(=O)(=O)C(C)(C)C)c1 [MA9-036, N-(2-Chloro-5-((2-((3-fluoro-4-(4-methylpiperazin-1-yl)phenyl)amino)-5-methylpyridin-4-yl)amino)phenyl)-2-methylpropane-2-sulfonamide] | – | GI50 (MM1.S cells): 3.12 µM |
| Cc1cnc(Nc2ccc(C3CCN(C)CC3)c(F)c2)nc1Nc1cc(NS(=O)(=O)C(C)(C)C)ncn1 [MA10-174, N-(6-((2-((3-fluoro-4-(1-methylpiperidin-4-yl)phenyl)amino)-5-methylpyrimidin-4yl)amino)pyrimidin-4-yl)-2-methylpropane-2-sulfonamide] | 0.9 | – |

Continued, in another order:

| BRD4 DSF (ΔTm) (BRD4) [°C] | Structure (SMILES) | also measured |
| --- | --- | --- |
| 1.4 | Cc1cnc(Nc2ccc(C3CCN(C)CC3)c(F)n2)nc1Nc1cc(NS(=O)(=O)C(C)(C)C)ncn1 [MA10-179, N-(6-((2-((6-fluoro-5-(1-methylpiperidin-4-yl)pyridin-2-yl)amino)-5-methylpyrimidin-4-yl)amino)pyrimidin-4-yl)-2-methylpropane-2-sulfonamide] | – |
| 6.3 | Cc1cnc(Nc2ccc(C3CCN(C)CC3)cc2)cc1Nc1cccc(NS(=O)(=O)C(C)(C)C)c1 [SY3-030, 2-Methyl-N-(3-((5-methyl-2-((4-(1-methylpiperidin-4-yl)phenyl)amino)pyridin-4-yl)amino)phenyl)propane-2-sulfonamide] | – |
| 11.6 | CN1CCC(c2ccc(Nc3ncc(I)c(Nc4ccc(Cl)c(NS(=O)(=O)C(C)(C)C)c4)n3)cc2F)CC1 [PN1-118, N-(2-Chloro-5-((2-((3-fluoro-4-(1-methylpiperidin-4-yl)phenyl)amino)-5-iodopyrimidin-4-yl)amino)phenyl)-2-methylpropane-2-sulfonamide] | GI50 (MM1.S cells): 0.21 µM |
| 1.1 | Cc1cnc(Nc2ccc(OCCN3CCCC3)cc2)nc1Nc1cc(NS(=O)(=O)C(C)(C)C)ncn1 | – |
| 7.6 | Cc1cnc(Nc2ccc(C3CCN(C)CC3)c(F)c2)nc1Nc1ccc2ccn(S(=O)(=O)C(C)(C)C)c2n1 [MA10-148, N4-(1-(Tert-butylsulfonyl)-1H-pyrrolo[2,3b]pyridin-6-yl)-N2-(3-fluoro-4-(1-methylpiperidin-4-yl)phenyl)-5-methylpyrimidine-2,4-diamine] | – |
| 1.4 | Cc1cnc(Nc2ccc(OCCN3CCCC3)c(F)c2)nc1Nc1cc(NS(=O)(=O)C(C)(C)C)ncn1 [MA10-176, N-(6-((2-((3-fluoro-4-(2-(pyrrolidin-1-yl)ethoxy)phenyl)amino)-5-methylpyrimidin-4-yl)amino)pyrimidin-4-yl)-2-methylpropane-2-sulfonamide] | – |
| 6.1 | Cc1cnc(Nc2ccc(N3CCN(C)CC3)c(F)c2)cc1Nc1ccc2c(c1)N(S(=O)(=O)C(C)(C)C)CC2 [MA9-042, N^4-(1-(tert-Butylsulfonyl)indolin-6-yl)-N^2-(3-fluoro-4-(4-methylpiperazin-1-yl)phenyl)-5-methylpyridine-2,4-diamine] | – |
| 8.0 | Cc1cnc(Nc2ccc(C3CCN(C)CC3)c(F)c2)nc1Nc1ncc2ccn(S(=O)(=O)C(C)(C)C)c2n1 [MA11-003, N4-(7-(tert-butylsulfonyl)-7H-pyrrolo[2,3-d]pyrimidin-2-yl)-N2-(3-fluoro-4-(1-methylpiperidin-4-yl)phenyl)-5-methylpyrimidine-2,4-diamine] | – |
| 12.4 | Cc1cnc(Nc2cc(F)c(C3CCN(C)CC3)cn2)nc1Nc1cccc(NS(=O)(=O)C(C)(C)C)c1 [PN2-103, N-(3-((2-((4-Fluoro-5-(1-methylpiperidin-4-yl)pyridin-2-yl)amino)-5-methylpyrimidin-4-yl)amino)phenyl)-2-methylpropane-2-sulfonamide] | – |
| 11.5 | Cc1cnc(Nc2ccc(N3CCN(C)CC3)cn2)nc1Nc1ccc(Cl)c(NS(=O)(=O)C(C)(C)C)c1 [PN2-091, N-(2-Chloro-5-((5-methyl-2-((5-(4-methylpiperazin-1-yl)pyridin-2-yl)amino)pyrimidin-4-yl)amino)phenyl)-2-methylpropane-2-sulfonamide] | – |
| 1.1 | Cc1cnc(Nc2cc(F)ncn2)nc1Nc1ccc(Cl)c(NS(=O)(=O)C(C)(C)C)c1 [PN2-064, N-(2-Chloro-5-((2-((6-fluoropyrimidin-4-yl)amino)-5-methylpyrimidin-4-yl)amino)phenyl)-2-methylpropane-2-sulfonamide] | – |
